# Measurements published in patent US7005425B2, “Method for treating arrhythmias” (CV Therapeutics, Inc., priority 2002, dated 2006).
# Key:
# awake rats = test: Telemetry studies of heart rate in awake rats; format: in vivo, Rats (Sprague Dawley)
# Description: Rats (Sprague Dawley) weighing 300–400 gms were purchased from Simonsen laboratories. CVT-3619 was dissolved in DMSO and further diluted in saline. CVT-510 was dissolved in saline. Ketamine was purchased from Fort Dodge Animal Health, Xylazine from Bayer and Acepromazine Maleate from Fermenta Animal Health Co. Metoprolol and propranolol were purchased from SIGMA. Esmolol was obtained from a local pharmacy.
# For these studies, rats were instrumented with radiotelemetered transmitters (Data Sciences) at least 3 weeks prior to experimentation. Animals were anesthetized by peritoneal injection of a “cocktail” (1 ml/kg) containing Ketamine (75 mg/ml), Xylazine (5 mg/ml), and Acepromazine (1 mg/ml). After 20–30 minutes of induction of anesthesia, a midline laparotomy was performed. The transmitter for recordings of ECG, blood pressure and body temperature was placed in the abdominal cavity, and secured to the abdominal muscles. Two electrocardiographic leads were tunneled through the subcutaneous—one toward the upper left shoulder and the other to the right thigh, and secured with sutures. A fluid filled sensor catheter was inserted in the descending aorta above the iliac bifurcation for measurement of blood pressure. The tip of the telemetry catheter was located in the abdominal aorta just caudal to the renal arteries. Once the transmitter and leads were in place and determined to be functioning properly, the abdominal wall was sutured. After recovery from anesthesia, the rats were housed individually in cages placed on their respective receivers. The ECG, blood pressure and temperature were recorded and heart rate measured by a Dataquest ART Gold system (Version 2.2; Data Sciences Intl). The system consisted of a transmitter, i.e., biopotential sensor (Model TL11M2-C50-PXT), receivers (Model RPC-1), a consolidation matrix (BCM 100), a personal computer (Compaq DeskPro Series 3574) and Dataquest 4 software. Heart rate, blood pressure and temperature were measured at 5-minute intervals. Each recording lasted 10 seconds and all cardiac cycles within this period were averaged. Animals were given various drugs in a randomized manner after recording the baseline data for at least two hours.
# A subgroup of animals was implanted with osmotic pumps containing CVT-510 for combination experiments. […]
# The slowing of heart rate caused by each treatment was quantified by determining the area under the curve (AUC), using the trapezoidal method for calculations. Data used for analysis was the area under/over the curve calculated using change form baseline data (untreated animals). The data was analyzed for the magnitude as well as the duration of bradycardia caused by each treatment. […]
# [1] = cited from earlier work
# anesthetized guinea pigs = test: PR interval (AV nodal conduction) in anesthetized, paced guinea pigs; format: in vivo; conditions: metoprolol 0.1 mg/kg iv bolus
# Excerpt: Male guinea pigs weighing 400–450 gm were obtained from Simonsen labs and housed in the institutional laboratory animal facility. Animals were anesthetized with isoflurane in the anesthetizing chamber. After determining (by toe pinch) that the animal is adequately anesthetized, the animals was intubated with an endotracheal tube and ventilated with isoflurane and oxygen mixture using anesthesia workstation. Using sterile equipment and aseptic technique, the right carotid artery was exposed and a catheter inserted for recording of blood pressure (BP). A quadripolar electrode catheter was introduced via the right jugular vein and positioned in the right atrium and ventricle for atrial and ventricular pacing. The hearts were paced at a constant rate (330–360 bpm) to eliminate the effect of heart rate variability between animals. Another catheter was inserted into the left jugular vein and positioned in the right atrium for the administration of drugs and saline. Subcutaneous needles were used as standard electrocardiographic leads to record the electrocardiogram (ECG). After completion of surgery and instrumentation, a 20 min equilibration period was allowed before beginning the experimental protocol. […] When the two agents were given in combination the PR interval was increased up to 15 msec. […] Esmolol was administered at three different infusion rates. […]
smiles,measurement,setting,value
"O[C@@H]1[C@@H](CSc2ccccc2F)OC(n2cnc3c(N[C@@H]4CCC[C@H]4O)ncnc32)[C@@H]1O (stereo partly drawn) [CVT-3619, 2-{6-[((1R,2R)-2-hydroxycyclopentyl)amino]purin-9-yl}(4S,5S,3R)-5-[(2-fluorophenylthio)methyl]oxolane-3,4-diol]",effect on heart rate (FIG. 1),awake rats; CVT-3619 0.5 mg/kg ip alone,minimal effect on heart rate
Nc1ncnc2c1ncn2[C@@H]1O[C@H](CO)[C@@H](O)[C@H]1O [Adenosine],half-life,[1],~10 s
"COC(=O)CCc1ccc(OCC(O)CNC(C)C)cc1 (stereo not shown) [esmolol, reference compound]",effect on heart rate (FIG. 3),"awake rats; esmolol 10 mg/kg ip alone, heart rate increase caused by handling",only slightly reduces the increase in heart rate
"COCCc1ccc(OCC(O)CNC(C)C)cc1 (stereo not shown) [metoprolol, reference compound]",increase of PR interval (FIG. 9),anesthetized guinea pigs,5 ms
